# Experimental data published in a melting point compilation (Tetko et al.; mined from patent text by program, amines drawn as free bases though some values may be those of a salt).
row,SMILES,melting point [°C]
1,CC(C#N)=C1CCN(c2ccc(N3C[C@H](CNC(=O)C(F)F)OC3=O)cc2F)CC1,172 to 174
2,COc1cc2c(cc1OC)-c1c(-c3ccccc3)sc(=N)n1CC2,123 to 125
3,COc1c(Nc2ncc(Cl)c(N[C@@H]3CCCC[C@H]3NS(C)(=O)=O)n2)ccc2c1CCCC(NCCO)C2 (some centres not stated),92 to 94
4,CCCCCc1cccn1NS(=O)(=O)C1CCCC=C1C(=O)OCC (configuration not stated),60 to 61
5,FC(F)(c1ccccc1)C(F)(F)c1cccc(Br)c1,72 to 75
6,CN(C)CCC(=O)Nc1ccc2[nH]c3ccc(NC(=O)CCN(C)C)cc3c(=O)c2c1,> 320
7,CCOC(=O)[C@H](CC(C)C)NC(=O)C[C@@H]1CN(CC(C)(C)CO)c2ccc(Cl)cc2[C@@H](c2cccc(OC)c2OC)O1,148 to 149
8,Cc1c(C)c2c(c(C)c1NC(=O)CCCOCc1ccccc1)C(c1ccc(C(C)C)cc1)CO2 (configuration not stated),85 to 86
9,CCOC(=O)c1cccc(-c2ccc(F)c3cc(CO)sc23)c1,89 to 90
10,CCS(=O)(=O)c1ccc(Oc2ccc3c(c2)OCO3)nc1,97 to 99
11,Cc1c(Cl)cccc1S(=O)(=O)Nc1ccc2nccnc2c1,166 to 167
12,COc1ccc(OC)c(NC(=O)c2cc(Br)ccc2O)c1,207 to 209
13,O=C(NCC12CC3CC(CC(C3)C1)C2)c1cc([N+](=O)[O-])ccc1Cl,178
14,CCOC(=O)C(C)(C)NC(=O)c1ccc(S(=O)(=O)n2c(=O)n(C3CCCCC3)c3cc(OCC)ccc32)c(OC)c1,202
15,COC(=O)c1cnn(-c2c(Cl)cc(Cl)cc2Cl)c1N,179 to 180
16,COC(=O)C1CC(Oc2ccc([N+](=O)[O-])cc2)CN1C(=O)C1(C)CCc2c(C)c(O)c(C)c(C)c2O1 (configuration not stated),103 to 105
17,CN1C(=S)N(c2cc(C(F)(F)F)cc(C(F)(F)F)c2)C(O)C1O (configuration not stated),133 to 135
18,C=CCNc1cc(Oc2cc(Cl)c(Br)cc2Cl)c(Cl)cc1[N+](=O)[O-],102
19,CN(C)C1(c2ccc(F)cc2)CCC(N2CCC(c3c[nH]c4ccccc34)C2)CC1 (configuration not stated),248 to 250
20,NC(N)=Nc1nc(-c2csc(CNC(=O)CO)n2)cs1,239
21,Cc1cccc(C)c1Sc1c(O)cc(-c2ccccc2)oc1=O,248 to 249
22,COC(=O)N[C@H](C(=O)N[C@@H](Cc1ccccc1)[C@H](O)CN1C[C@H]2CCCC[C@H]2C[C@H]1C(=O)NC(C)(C)C)C(C)(C)S(C)(=O)=O,190 to 194
23,COc1ccc2cc(C(C)C(=O)NCCN(O)C(N)=O)ccc2c1 (configuration not stated),162
24,CN(C)C(=O)c1ccc(NS(C)(=O)=O)c(Oc2ccc(F)cc2F)c1,165 to 167
25,CC1(C)CCC(C)(C)c2cc(C(=O)CNc3ccc(C(=O)O)cc3)ccc21,168 to 169

row,SMILES,melting point [°C]
1,Nc1nc(Cl)c2ncn(CC3CCOCO3)c2n1 (configuration not stated),169 to 170
2,COCOc1ccc(C=O)c(Oc2ncc(C(F)(F)F)cc2Cl)c1,93.9 to 94
3,O=c1[nH]c2ccccc2n1-c1ccc(Cl)cc1Cl,213 to 216
4,CCOC(=O)c1[nH]c2ccc(C)cc2c(=O)c1C,190 to 193
5,Cc1c(-c2cccnc2)sc2nc(N)[nH]c(=O)c12,280 to 290
6,CC(C)(C)c1cc(=O)o[nH]1,110 to 115
7,CCOP(=O)(Cc1cc(C(C)(C)C)c(O)c(C(C)(C)C)c1)OCC,114
8,Cc1cc(Cn2nc(C(F)(F)F)cc2C(F)(F)F)ccc1NC(=O)c1cccc(Cl)c1C(=O)NC(C)(C)C(=O)O,179 to 184
9,CN(C(=O)[C@H]1CC[C@@H](c2ccccc2)N1C(=O)OC(C)(C)C)c1ccccc1 (racemic),132
10,O=C1N(Cc2noc(C(F)(F)F)n2)c2ccccc2C12COc1cc3c(cc12)OCO3 (configuration not stated),139 to 140
11,NC(=O)N(C(=O)c1c(F)cccc1Cl)c1ccc(SC(F)(F)F)cc1,202
12,CC1=C(C2C=CN(C(=O)OCC(Cl)(Cl)Cl)C=C2)SC(C)C(=O)N1 (configuration not stated),140 to 142
13,Oc1ccc2c(-c3ccco3)nn(Cc3ccccc3F)c2n1,250
14,CN(C(=O)c1ccc(C(=O)C(C)(C)C)cc1)C(=O)c1ccc(C(=O)C(C)(C)C)cc1,122
15,CN1CCN(Cc2cc(C(=O)c3cccs3)cc(C(C)(C)C)c2O)CC1,118 to 119
16,Nc1cc2nc(O)c(O)nc2c2c1CCCC2,> 300
17,Cn1nc(-c2cccc(-n3ncc4cc(C(C)(C)C)cc(F)c4c3=O)c2CO)cc(Nc2cnc(C(F)(F)F)cn2)c1=O,250 to 254
18,CCOC(=O)CN(Cc1ccccc1)C(=O)Cn1c2cccc(OCc3ccccc3)c2c2c(COC)c(C(=O)OC(C)C)ncc21,122
19,CCOC(=O)c1c[nH]c(Cc2ccc(OC)cc2)n1,119 to 121
20,CC(=O)N1CCC(Oc2ccc(N3CCCC3)cc2)CC1,69 to 70
21,O=C1CCC2(CC3CCC2CC3)C(=O)N1 (configuration not stated),183 to 184
22,CCOc1cc(C(=CC#N)c2ccc(OC)c([N+](=O)[O-])c2)ccc1OC,141 to 143
23,COC(=O)Cc1nc(-c2ccccc2)c(-c2ccccc2)o1,87 to 91
24,NS(=O)(=O)c1ccc(-c2c(-c3ccccc3)noc2COCC(F)(F)CO)cc1,93 to 94
25,COc1ccc(S(=O)(=O)CC(C)=CCOC(C)=O)cc1,54 to 56

row,SMILES,melting point [°C]
1,CN(C)CCCCN1CCOc2cc3ncc(C#N)c(Nc4ccc(F)c(Cl)c4)c3cc21,105
2,CN1c2ccccc2CCC1c1ccccc1 (configuration not stated),99 to 101
3,CC12CCC=CC1=CCC1C2CCC2(C)C(OS(=O)(=O)C(F)(F)F)=CCC12 (configuration not stated),75 to 76
4,CCCn1ncnc1COc1nc2c(nnn2-c2ccccc2)c2ccccc12,154 to 156
5,Cc1cc(-c2ccc(Cl)cc2)cnc1N=CN(C)C,99
6,Cc1cc(NC(=O)c2cc(C#N)cc(C)n2)ccn1,302
7,O=[N+]([O-])c1c(Nc2ccc(O)cc2)ncnc1-c1ccc(C(F)(F)F)cc1F,169 to 172
8,COc1cc2c(cc1OC)-c1c(O)c(OC)cc3c1C(C2)CN(C(=O)C(F)(F)F)C3 (configuration not stated),210 to 217
9,C[C@]1(CN2CCN(c3ccc(OC(F)(F)F)cc3)CC2)Cn2cc([N+](=O)[O-])nc2O1,129 to 130
10,O=C(NCc1ccccc1)C(Cc1c[nH]c2ccccc12)NC(=O)C(F)(F)F (configuration not stated),186 to 188
11,CCNc1nnc2ccc(-c3cccc(N(C)C(C)=O)c3)nn12,225 to 227
12,O=C1c2ccccc2CN1C1CCN(c2ccc(C(OCc3ccccc3)c3ccccc3)cc2)CC1 (configuration not stated),112 to 115
13,Nc1c(C(=O)Cc2ccccc2)[nH]c2cc(Cl)ccc12,204 to 205
14,CCCCCCCCCCCCCCCNC(=O)OCCOCCOC(=O)NCc1ccccn1,86 to 87
15,COC(=O)C(C(C)C)S(=O)(=O)N(C(C)=O)c1nc(OC)cc(OC)n1 (configuration not stated),100 to 102
16,COc1cc(Br)cc(C23CC4CC(CC(C4)C2)C3)c1OCc1ccccc1,89 to 91
17,Cn1c(=O)oc2cc(C(O)CCN3CCOCC3)ccc21 (configuration not stated),132
18,CS(=O)(=O)c1ccc(-c2oc(C(=O)O)cc(=O)c2Oc2ccc(Cl)cc2)cc1,263
19,CC#Cc1cc(N(C)C)nc(Nc2ccccc2)n1,150 to 152
20,CC(C)Cn1cnc2c(N)nc3cc(CCc4ccccc4)ccc3c21,172 to 173
21,O=Cn1cc(Cl)c(-c2cccc(Cl)c2[N+](=O)[O-])c1,138
22,CC12CCC3C(CCC4CC(O)CCC43C)C1CCC2C#N (configuration not stated),156 to 158
23,CCCC(CCC)c1ccc(OCc2ccc(-c3csc(COc4cncc(C(=O)O)c4)c3)cc2)cc1,157 to 159
24,CCCNc1ncnc2c1ncn2CCCN1CCC(COc2ccccc2)CC1,62 to 63
25,CCCCc1cc2cc(NS(C)(=O)=O)ccc2o1,105 to 106

row,SMILES,melting point [°C]
1,Cc1nc(N2CCCC(Cc3ccc(F)cc3)C2=O)sc1C(=O)NCc1cccc(F)c1 (configuration not stated),173 to 175
2,O=C1CCc2sccc21,87 to 88
3,CSc1ccc(-c2nnc(Cl)cc2-c2ccc(Cl)cc2)cc1,145 to 146
4,Cc1ccc2c(C3CN4CCC3CC4)c(C)[nH]c2c1 (configuration not stated),237 to 238
5,Cc1cc(C2(C(F)(F)F)CC(c3ccc(C(N)=O)cc3)=NO2)ccc1NC(=O)c1cccc(I)c1C(=O)NC(C)C (configuration not stated),173 to 175
6,Cc1cc(-c2ccc(C#N)cc2)cn2cc(-c3ccc(C#N)cc3)nc12,283 to 285
7,O=C(O)C1CC(=O)N(c2ccccc2)C1c1cccnc1 (configuration not stated),229 to 232
8,COC(=O)c1ccc(C(=O)/C=C/c2cc(-c3cc4ccccc4s3)c(OC)cc2OC)cc1,149 to 151
9,Oc1cccc(C2CCCN2Cc2ccncc2)c1 (configuration not stated),138
10,N#Cc1ccc(OC2CCOC2=O)cc1C(F)(F)F (configuration not stated),107 to 108
11,COc1ccc(C(CC(=O)O)c2ccc(OC)cc2)cc1,132 to 134
12,Cn1nc(-c2ccc(OC(F)(F)F)cc2)cc1CO,91 to 93
13,OCCCc1ccc(OCC2CCCO2)cc1Oc1ncc(C(F)(F)F)cc1Cl (configuration not stated),91.3 to 93.6
14,C[C@@H]1OCCN(c2cc(N3CCOCC3)nc(-n3c(N)nc4ccccc43)n2)[C@@H]1C (relative stereo),118 to 123
15,O=C(NCc1ccccc1)c1ccnc(N2CCC(c3ccccc3)CC2=O)c1 (configuration not stated),55 to 60
16,COc1cccc([C@H]2O[C@H](CC(=O)NCc3ccoc3C(=O)O)C(=O)N(CC(C)(C)CO)c3ccc(Cl)cc32)c1OC,125 to 128
17,O=C(O)C(CCC(=O)N1CCOCC1)Cc1cccc2ccccc12 (configuration not stated),130 to 135
18,COc1cc(-c2ncn(C3CC3)c2-c2ccc(C(F)(F)F)cc2)cc(OC)c1OC,125 to 130
19,O=C(O)Cc1ccc(C(=O)C2CCCCC2)cc1,94 to 95.5
20,CCOC(=O)c1ccc(OCCCCCCc2cccc(O)c2O)cc1,45 to 47
21,O=C(Nc1ccccc1)c1cc2ccccc2s1,188
22,O=C(Nc1ccc(F)cc1F)c1cncc(Sc2cccc([N+](=O)[O-])c2)n1,131 to 135
